Several values for one entry are separate records, joined by “and”; a condition that tells them apart may be missing. Identical values can stand only once. Like-named read-outs stand apart in the source and are kept apart here.
Assays:
[1] = system: HIF-1α; experiment: Hypoxia induction with CoCl2, Western blot; type: cell-based, human; details: A375 cell line, 100 μM CoCl2 in DMEM, 1 and 2 h
Experimental: The cells were seeded into 12-well plates at a concentration of 10^5 cells/well. After the cells had reached full morphology (approx. 48 h), the medium was replaced with fresh medium containing cobalt(II) chloride (CoCl2) at a concentration of 100 μM, followed by incubation at 37 °C for 1 and 2 h. In the control sample, fresh medium without CoCl2 was added. After the incubation, cells were kept on ice and washed with ice-cold 1x PBS. After removing the 1x PBS, the cells were lysed with ice-cold radio-immunoprecipitation assay buffer (RIPA) buffer (50 mM Tris, 150 mM NaCl, 0.5% sodium deoxycholate, and 1% Triton X-100) and then incubated on ice for 30 min. The cells were centrifuged at 14,000 rpm at 4 °C for 10 min to separate the DNA in pellets and proteins in the supernatant. The supernatant was collected, and 4× Laemmli sample buffer (50 mM Tris pH 6.8, 10% glycerol, 2% SDS, 2% 2-mercaptoethanol, and 0.04% bromophenol blue) was added. The samples were heated at 95 °C for 10 min before separation on 10% polyacrylamide gels (SDS-PAGE). All gels were transferred to nitrocellulose membranes using the semi-dry transfer system at 100 V (Trans-Blot Turbo RTA Transfer kit, Bio Rad, Hercules, CA, USA, #1704270). […]

[2] = N-methylated analogue; cited from earlier work
[3] = system: A375; experiment: Photocytotoxicity, MTT assay; type: cell-based, human; details: for IC50: Homo sapiens, A-375, light or radiation study
Experimental: (§1) For (photo)cytotoxicity assays, stock solutions of porphyrins were prepared in DMSO and dissolved in DMEM to the final concentrations. The porphyrin incubation time was 6h. Irradiation of the cells was with red light (λ = 643 nm) for 30 min (light dose, 3.6 J/cm^2). Nonirradiated cells were used to test the dark toxicity. All measurements were performed in three individual experiments, and the results are shown as the proliferation (%) of the cells and were calculated as IC50 values.
(§2) The cytotoxicity of (oxidopyridyl)porphyrins was assessed by an MTT assay on the HDF, MeWo and A375 cell lines after 6 h of incubation with porphyrins, without irradiation, or after 30 min of irradiation with red light (λ = 643 nm), and under conditions of normoxia or hypoxia. To induce hypoxia, 100 µM of CoCl2 was added at least two hours before the porphyrins. […] Oxygen is also one of the substrates for the activity of prolyl hydroxylases; therefore, in both cases, the result is the blockage of hydroxylation of HIF-1α and, consequently, its increase and stabilisation, which, in the case of CoCl2-induced hypoxia, can be maintained for several hours.

[4] = system: HDF; experiment: Photocytotoxicity, MTT assay; type: cell-based, human; details: Homo sapiens, HDF, light or radiation study
Experimental: as §1, §2

[5] = system: MeWo; experiment: Photocytotoxicity, MTT assay; type: cell-based, human; details: for IC50: Homo sapiens, MeWo, light or radiation study
Experimental: as §1, §2

[6] = cited from earlier work; for ΦISC: N-methyl porphyrin analogues; for τT (lifetime of 3PS*): N-methylated counterparts
[7] = system: HDF, MeWo and A375 cell lines; experiment: (Photo)cytotoxicity MTT assay, statements made for all cell lines; type: cell-based, human
Experimental: as §1, §2

[8] = UV-Vis absorption spectra in MeOH; type: physicochemical
Experimental: (§3) The absorption spectra of (oxidopyridyl)porphyrins were recorded in HPLC grade MeOH on a Cary UV 60 (Agilent Technologies, Santa Clara, CA, USA), in a wavelength range of 300–700 nm. The fluorescence spectra in HPLC grade MeOH were recorded on a Cary Eclipse (Agilent Technologies) in a wavelength range of 500–800 nm after excitation at the Soret band wavelength (λ ~ 420 nm). The slits of the spectrometer were set to a bandpass of 5 nm for the excitation and 5 nm for the emission. To calculate the fluorescence quantum yields, the measurements were conducted on an FS5 Edinburgh Instruments spectrometer. Prior to taking the measurements, the solutions were purged with high-purity N2 for at least 15 min. The absorbance of the solutions was set to A < 0.1 at 405 nm and 550 nm, which settings were used for the excitation process. Emission was recorded from 550 to 800 nm, with slits set to the bandpass corresponding to 2 nm for the excitation, and 3 nm for the emission. Fluorescence quantum yield (ΦFL) was calculated in comparison to the tetraphenylporphyrin (TPP; ΦFL = 0.11 [23]) as a standard, according to Equation (S1) and following an equation previously described elsewhere.

[9] = Laser flash photolysis (LFP), triplet excited state properties; type: physicochemical; details: MeOH
Experimental: Laser flash photolysis (LFP) was performed using an LP980 transient absorption spectrometer (Edinburgh Instruments) equipped with a continuous beam (or pulse mode) Xenon lamp passing through the sample. A nanosecond Nd:YAG laser (Quantel, Q-smart 450, 5 ns pulse duration, 10 Hz, excitation wavelength 355 nm) was then used to excite the sample perpendicular to the lamp beam. The laser beam energy was adjusted to below 5 mJ. The ground state absorbance of the porphyrins in MeOH was adjusted to 0.20–0.25 at 355 nm (the laser excitation wavelength) and the solutions were purged with high-purity N2 for at least 15 min prior to taking the measurements. The samples were prepared for kq determination in an air atmosphere that was N2-purged for 15 min and O2-purged for 15 min before the measurements were taken. The ground state absorption spectra of the samples were also recorded after purging the sample with N2 or O2, and after transient absorption (TAS) measurements were taken to track the differences in every step of the measurement process to ensure that no photoproducts were formed. All measurements were performed at 25 °C in 1 cm quartz cuvettes. Laser flash photolysis was used to measure the kinetics of triplet state depopulation (τT) and triplet-triplet absorption spectra, and to calculate the intersystem crossing quantum yield (ΦISC) and quenching rate constants of triplet excited states by molecular oxygen (kq). To calculate ΦISC, the first step was the calculation of the molar absorption coefficient of the triplet state using the singlet depletion method, completing the first step according to Equation (S2). The ΦISC values were estimated by using a comparative method with TPP (ΦISC = 0.87 in toluene) as the standard. The ΦISC was calculated according to Equation (S3). Triplet excited state lifetimes were determined by fitting the triplet decays to the equation for the mixed first- and second-order decay, as previously described, and the quenching rate constant of a triplet excited state by molecular oxygen was calculated using the Stern–Volmer equation (Equation (S4)).

[10] = Fluorescence decay by time-correlated single-photon counting (TC-SPC); type: physicochemical; details: MeOH, N2, λex 405 nm
Experimental: Time-correlated single-photon counting (TC-SPC) was used to obtain information about fluorescence decays. All measurements were performed on an FS5 Edinburgh Instruments device with a pulsed laser at 405 nm wavelength, which was used for the excitation process (pulse duration 60 ps). Fluorescence signals were monitored at 660 nm over 1023 channels, with a time increment of ≈49 ps/channel. Porphyrins were dissolved in MeOH (HPLC grade), with the absorbance adjusted to 0.1 a.u. at the excitation wavelength, and the solution was degassed with N2 for 15 min before the measurements were taken. All the decays were collected until they reached 3000 counts in the peak channel. A scattering solution, a silica gel suspension in H2O, was used to obtain the instrument response function (IRF). The histograms were analysed using a nonlinear least-squares deconvolution method via the software implemented with the instrument.

[11] = Fluorescence spectra and fluorescence quantum yield in MeOH; type: physicochemical
Experimental: as §3

[12] = red light 643 nm 30 min, CoCl2-induced hypoxia
[13] = red light 643 nm 30 min, normoxia

## [Cl-].[Cl-].[Co+2] [CoCl2, Cobalt(II) chloride]
[1]
  HIF-1α protein level (Western blot, normalised to β-actin): accumulation of HIF-1α

## CCCCCCCCCCCCCCCCCC(=O)Nc1ccc(-c2c3nc(c(-c4ccc[n+](C)c4)c4ccc([nH]4)c(-c4ccc[n+](C)c4)c4nc(c(-c5ccc[n+](C)c5)c5ccc2[nH]5)C=C4)C=C3)cc1.[Cl-].[Cl-].[Cl-] [TMPyP3-C17H35, 5-(4-Octadecanamidophenyl)-10,15,20-Tris(N-Methylpyridinium-3-Yl)Porphyrin Trichloride]
[2]
  ΦFL (fluorescence quantum yield): 0.105
[3]; read-out: IC50 A375 CoCl2
  IC50: 230 ± 70 nM
[3]; read-out: IC50 A375 No CoCl2
  IC50: 150 ± 80 nM
[3]; [12]
  SI (IC50 (HDF) / IC50 (melanoma cells)) A375 100 µM CoCl2: 2.0
[3]; [13]
  SI (IC50 (HDF) / IC50 (melanoma cells)) A375 No CoCl2: 2.2
[4]; read-out: IC50 HDF CoCl2
  IC50: 460 ± 140 nM
[4]; read-out: IC50 HDF No CoCl2
  IC50: 330 ± 30 nM
[5]; read-out: IC50 MeWo CoCl2
  IC50: 470 ± 20 nM
[5]; read-out: IC50 MeWo No CoCl2
  IC50: 330 ± 40 nM
[5]; [12]
  SI (IC50 (HDF) / IC50 (melanoma cells)) MeWo 100 µM CoCl2: 1.0
[5]; [13]
  SI (IC50 (HDF) / IC50 (melanoma cells)) MeWo No CoCl2: 1.0
[6]
  ΦISC: 0.38
  τT (lifetime of 3PS*): 0.74 ms
[7]; Homo sapiens, light or radiation study, read-out: IC50 in all the tested cells
  IC50: ≤ 1000 nM

## CC(=O)Nc1ccc(-c2c3nc(c(-c4ccc[n+]([O-])c4)c4ccc([nH]4)c(-c4ccc[n+]([O-])c4)c4nc(c(-c5ccc[n+]([O-])c5)c5ccc2[nH]5)C=C4)C=C3)cc1 [TOPyP3-CH3, 5-(4-Acetamidophenyl)-10,15,20-tris(1-oxido-3-pyridyl)porphyrin]
[3]; 6 h incubation, red light 643 nm 30 min, 3.6 J/cm^2, 100 μM CoCl2 at least 2 h before porphyrin, read-out: IC50 A375 CoCl2
  IC50: > 100000 nM
[3]; 6 h incubation, red light 643 nm 30 min, 3.6 J/cm^2, normoxia, read-out: IC50 A375 No CoCl2
  IC50: > 100000 nM
[4]; 6 h incubation, red light 643 nm 30 min, 3.6 J/cm^2, 100 μM CoCl2 at least 2 h before porphyrin, read-out: IC50 HDF CoCl2
  IC50: > 100000 nM
[4]; 6 h incubation, red light 643 nm 30 min, 3.6 J/cm^2, normoxia, read-out: IC50 HDF No CoCl2
  IC50: > 100000 nM
[5]; 6 h incubation, red light 643 nm 30 min, 3.6 J/cm^2, 100 μM CoCl2 at least 2 h before porphyrin, read-out: IC50 MeWo CoCl2
  IC50: > 100000 nM
[5]; 6 h incubation, red light 643 nm 30 min, 3.6 J/cm^2, normoxia, read-out: IC50 MeWo No CoCl2
  IC50: > 100000 nM
[8]
  ε Qx (0-0): 1900 M⁻¹ cm⁻¹
  ε Qx (1-0): 5800 M⁻¹ cm⁻¹
  ε Qy (0-0): 5200 M⁻¹ cm⁻¹
  ε Qy (1-0): 18200 M⁻¹ cm⁻¹
  ε Soret (B): 346900 M⁻¹ cm⁻¹
  λabs Qx (0-0): 645 nm
  λabs Qx (1-0): 588 nm
  λabs Qy (0-0): 545 nm
  λabs Qy (1-0): 510 nm
  λabs Soret (B): 416 nm
[9]
  τT (lifetime of 3PS*): 1.1 ms
[9]; N2-purged, 25 °C
  τT (lifetime of the triplet excited state): 1100 ± 200 μs
[9]; Stern–Volmer
  kq (O2) (quenching rate constant of the triplet excited state by O2): 1.3e+09 M⁻¹ s⁻¹
[9]; comparative method with TPP, estimated
  ΦISC (quantum yield of intersystem crossing): 0.66
[9]; singlet depletion method
  εT-T (molar absorption coefficient of the triplet state): 47 000 M^−1cm^−1
[7]; 1 µM, irradiation 643 nm, normoxia or CoCl2-induced hypoxia
  phototoxicity / reduction of proliferation at 1 µM: did not appear to reduce the proliferation
[10]
  contribution of τ1 (% of the decay): 2%
  contribution of τ2 (% of the decay): 98%
  τFL, longer decay time τ2: 8.62 ± 0.02 ns and 8.62 ns
  τFL, short decay time τ1: 0.82 ± 0.08 ns and 0.82 ns
[11]; N2-purged, TPP as reference
  ΦFL (fluorescence quantum yield): 0.050 ± 0.002
[11]; excitation at Soret band
  λFL Q(0,0): 648 nm
  λFL Q(0,1): 713 nm

## CC(=O)Nc1ccc(-c2c3nc(c(-c4ccc[n+](C)c4)c4ccc([nH]4)c(-c4ccc[n+](C)c4)c4nc(c(-c5ccc[n+](C)c5)c5ccc2[nH]5)C=C4)C=C3)cc1.[Cl-].[Cl-].[Cl-] [TMPyP3-CH3, 5-(4-Acetamidophenyl)-10,15,20-Tris(N-Methylpyridinium-3-Yl)Porphyrin Trichloride]
[2]
  ΦFL (fluorescence quantum yield): 0.072
[3]; read-out: IC50 A375 CoCl2
  IC50: > 100000 nM
[3]; read-out: IC50 A375 No CoCl2
  IC50: > 100000 nM
[4]; read-out: IC50 HDF CoCl2
  IC50: > 100000 nM
[4]; read-out: IC50 HDF No CoCl2
  IC50: > 100000 nM
[5]; read-out: IC50 MeWo CoCl2
  IC50: > 100000 nM
[5]; read-out: IC50 MeWo No CoCl2
  IC50: > 100000 nM
[6]
  ΦISC: 0.34
  τT (lifetime of 3PS*): 0.77 ms

— article PMC12382614, “(Oxidopyridyl)Porphyrins of Different Lipophilicity: Photophysical Properties, ROS Production and Phototoxicity on Melanoma Cells Under CoCl2-Induced Hypoxia” (Antioxidants, 2025)
